Read-outs that look alike come from different tables or passages of the source.
Key:
[1] = system: cholesterol-induced atherosclerosis; details: cited from earlier work
[2] = set-up: species or system Yorkshire swine; details: female, Yorkshire, pig, in vivo
Description: Formulations: Two Different Formulations were Prepared: • 1. […] Sirolimus was encapsulated in gelatin nanoparticles (GNP).
An incision of 5-8 cm was made alongside the femoral (or carotid) artery, and surrounding muscle and perivascular fascia were bluntly dissected to expose the artery.
The HPLC facility isolated the paclitaxel in usual manner and sirolimus was isolated with an addition step of enzymatic digesting of the GNP with trypsin at 37° C. before the analysis of each of them by Liquid Chromatography with tandem mass spectrometry (LC-MS-MS). • 1. Paclitaxel on day 1 in both the arteries with the final concentration of 12 ng/g in the first artery and 5.2 ng/g in second artery was detected by LC-MS/MS. The solution that was evacuated after 5 min of the formulation in the test site was evaluated by LC-MS/MS to detect 15% (75 mg) of the initial concentration of injected paclitaxel solution. […] Only few nanograms were detected in 24 h and that could indicate that probably 100% DMSO as a carrier took away the paclitaxel from the site to other region of the leg muscles that were not evaluated.

[3] = Stability and solubility of rapamycin in DMSO and DMSO/saline; format: physicochemical; details: in DMSO at −20° C.
Text: The rapamycin solution in DMSO could be further diluted either in saline, PBS, or distilled water.
The best working solution is considered to be 50/50 DMSO/water i.e., 50% of the DMSO in solution. This could be envisioned valid if instead of saline blood is used.

[4] = Rapamycin delivery in isolated porcine carotid artery (LC-MS/MS of tissue and washings); format: in vitro ADME
Description: Sirolimus/Rapamycin was analyzed using an LC-MS/MS system consisting of an Agilent 1290 (San Jose, CA, USA) coupled to electrospray ionization on a triple quadrupole mass spectrometer (Agilent 6460, San Jose, CA, USA) equipped with a turbo ion spray interface in negative ionization mode, and an Agilent LC 1200 Binary pump system (Agilent Technologies, Santa Clara, CA, USA). Ascomycin was used as an internal standard (IS). A Gemini 5 μm NX-C18 110 Å, LC Column polar-RP 80A column (50×2 mm, Phenomenex, Torrance, CA, USA) equipped with a Security Guard™ column (4.0 mm×3.0 mm) was utilized to optimally separate sirolimus and the internal standard from endogenous substances of porcine carotid artery. The mobile phase was a mixture of 20 mM ammonium acetate (A) and methanol (B). Sample separation was conducted using a flow rate of 0.2 mL/min and a 10-min gradient condition (0-1 min: 20% B, 1-6 min: 100% B, 6-7 min: 100% B, 7.1-10 min: 20% B). The injection volume was […] for calibration and carotid artery samples. The selected reaction monitoring transitions of m/z 912.5→371.2 and m/z 790.5→530.3 were applied for sirolimus and IS, respectively. Mass data were acquired using Analyst software version 1.5.2 (Applied Biosystems-SCIEX, Concord, ON, Canada). Data analysis was processed using SCIEX OS offline software version 1.6 (Applied Biosystems-SCIEX, Concord, ON, Canada).
Sirolimus/Rapamycin was dissolved in acetonitrile to prepare a stock solution (1 mg/mL) and including IS with 2 ng/μL and were gradually diluted by the serial dilution method using calibrated pipettes (2-20 μL, 10-100 μL and 100-1000 μL), in order to obtain working stock dilutions at decreasing concentrations ([…]). These solutions were used for the preparation of mass spectrometry optimization, calibration curve and quality control standards in DMSO and carotid artery homogenates. These stock solutions and stock dilutions were stored at −20° C., respectively.
Sirolimus/Rapamycin was dissolved in DMSO to prepare a final concentration of 100 mg/mL (stock solution) and stored at −80° C. The porcine carotid arteries were washed 5 times in PBS (1×) to remove all the blood and fluids, followed by cutting them into 40 mm length. The surface area (SA) of the artery was calculated to be 628 mm^2 (lateral SAcylinder=2πrh; π=3.14, r=2.5 mm, and h=40 mm). The Rapamycin solution was diluted in DMSO to prepare […] (2 μg/mm^2). One of the carotid arteries was tied at one end and then it was filled with 0.5 mL of Rapamycin solution ([Rapamycin]0=628 μg/mL) then the open end was tied. After a 5-minute treatment, the solution was drained out, then arteries were washed with 5×0.2 mL of PBS (1×) which was also collected for the analysis. A similar experiment was performed as a biological duplicate. The arteries and the washings were then analyzed for the presence of Sirolimus/Rapamycin for determining the amount that was absorbed by the tissues compared to the amount that was washed out for use as a model.
Treated and untreated porcine carotid artery segments (100 mg, 2 mm) were shredded in methanol with a surgical blade and transferred to a 2 ml tube with a total volume of 1 ml methanol and 100 μL of internal standard (1 ng/ml). This tube contained garnet beads/shards for homogenizing tissue. Then a Qiagen Tissue Lyser LT was used to beat the artery shreds at 50 Hz for 10 minutes. The supernatant was dried down completely under a gentle stream of nitrogen using a nitrogen evaporator. The samples were resuspended in 100 μL of DMSO and placed in inserted universal autosampler vials prior to analysis.

## C[S+](C)[O-] [DMSO, dimethyl sulfoxide]
[1]
  Food intake of rabbits on the atherogenic diet: not suppressed
[1]; rabbits on atherogenic diet, 2% (dose, 1.5 g/kg) DMSO
  Inhibition of aortic lesions: about 50%
[1]; rabbits on atherogenic diet, 4 (3.5 g/kg), 5 (5.5 g/kg) and 6% (9.1 g/kg) DMSO
  Aortic lesions: virtually absent in the majority of rabbits

## CC(=O)O[C@H]1C(=O)[C@@]2(C)[C@H]([C@H](OC(=O)c3ccccc3)[C@]3(O)C[C@H](OC(=O)[C@H](O)[C@@H](NC(=O)c4ccccc4)c4ccccc4)C(C)=C1C3(C)C)[C@]1(OC(C)=O)CO[C@@H]1C[C@@H]2O [Paclitaxel]
Day 7 animal
  Adverse reaction (edema): no edema was observed
Day 14 animal
  Adverse reaction (edema): Same lack of reaction was observed
In vivo
  Findings around the site of delivery when sutures were opened: a lot of dead tissues and blood clots
t=24 h animal
  Adverse reaction on injected leg (edema): severe edema
[2]
  Drug in solution evacuated after 5 min, % of the initial concentration: 15%
  Drug in solution evacuated after 5 min, amount: 75 mg
[2]; 5 min
  Absorbed by the tissue, %: 85%
  Absorbed by the tissue, amount: 425 mg

## CO[C@H]1C[C@@H]2CC[C@@H](C)[C@@](O)(O2)C(=O)C(=O)N2CCCC[C@H]2C(=O)O[C@H]([C@H](C)C[C@@H]2CC[C@@H](O)[C@H](OC)C2)CC(=O)[C@H](C)/C=C(\C)[C@@H](O)[C@@H](OC)C(=O)[C@H](C)C[C@H](C)/C=C/C=C/C=C/1C [Rapamycin]
[3]
  Stability of rapamycin in DMSO: many months
[4]; 5-minute treatment, rapamycin in DMSO
  % of total drug in 2 mm of artery: 30.13%
[4]; PBS washings after 5-minute treatment
  % of total drug in washings (40 mm of artery): 0.5%
[4]; Total Dose 220 ug
  Delivery efficiency: 99.55%
  Lost in Blood stream (washed out): 1 µg
  Remaining in tissue: 68.75 µg
  Remaining in tissue, % of the dose: 30.13 % of the dose
